The target in this assay is T1, human TRPM8 (Homo sapiens, UniProt Q7Z2W7).
T1 construct: expressed in transfected cells; host or cells: Chinese hamster ovary (CHO) cells, T-REx tetracycline-inducible system, co-transfected with aequorin
Put plainly: Luminescence readout assay for measuring intracellular calcium, icilin activation. The assay is classed as cell-based. To be noted: CHO cells expressing human TRPM8, aequorin luminescence, 1 μM icilin activation; read-out: hTRPM8 IC50. The method in brief: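 The read-out was luminescence reporting intracellular calcium, recorded by a CCD-based luminometer. Compounds were preincubated for 2.5 min before agonist challenge with 1 μM icilin. Human TRPM8 was expressed in a stable T-REx CHO line, induced with 0.5 μg/mL tetracycline the day before.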
On the technique in general: A change in cytosolic calcium serves as a functional read-out for many receptors and channels.

Our source for the IC50 values is patent publication US8710043B2, “TRPM8 antagonists and their use in treatments” (Amgen Inc., priority 2011, dated 2014).

Each structure is given as a SMILES string.

T1 sequence (Q7Z2W7 whole entry): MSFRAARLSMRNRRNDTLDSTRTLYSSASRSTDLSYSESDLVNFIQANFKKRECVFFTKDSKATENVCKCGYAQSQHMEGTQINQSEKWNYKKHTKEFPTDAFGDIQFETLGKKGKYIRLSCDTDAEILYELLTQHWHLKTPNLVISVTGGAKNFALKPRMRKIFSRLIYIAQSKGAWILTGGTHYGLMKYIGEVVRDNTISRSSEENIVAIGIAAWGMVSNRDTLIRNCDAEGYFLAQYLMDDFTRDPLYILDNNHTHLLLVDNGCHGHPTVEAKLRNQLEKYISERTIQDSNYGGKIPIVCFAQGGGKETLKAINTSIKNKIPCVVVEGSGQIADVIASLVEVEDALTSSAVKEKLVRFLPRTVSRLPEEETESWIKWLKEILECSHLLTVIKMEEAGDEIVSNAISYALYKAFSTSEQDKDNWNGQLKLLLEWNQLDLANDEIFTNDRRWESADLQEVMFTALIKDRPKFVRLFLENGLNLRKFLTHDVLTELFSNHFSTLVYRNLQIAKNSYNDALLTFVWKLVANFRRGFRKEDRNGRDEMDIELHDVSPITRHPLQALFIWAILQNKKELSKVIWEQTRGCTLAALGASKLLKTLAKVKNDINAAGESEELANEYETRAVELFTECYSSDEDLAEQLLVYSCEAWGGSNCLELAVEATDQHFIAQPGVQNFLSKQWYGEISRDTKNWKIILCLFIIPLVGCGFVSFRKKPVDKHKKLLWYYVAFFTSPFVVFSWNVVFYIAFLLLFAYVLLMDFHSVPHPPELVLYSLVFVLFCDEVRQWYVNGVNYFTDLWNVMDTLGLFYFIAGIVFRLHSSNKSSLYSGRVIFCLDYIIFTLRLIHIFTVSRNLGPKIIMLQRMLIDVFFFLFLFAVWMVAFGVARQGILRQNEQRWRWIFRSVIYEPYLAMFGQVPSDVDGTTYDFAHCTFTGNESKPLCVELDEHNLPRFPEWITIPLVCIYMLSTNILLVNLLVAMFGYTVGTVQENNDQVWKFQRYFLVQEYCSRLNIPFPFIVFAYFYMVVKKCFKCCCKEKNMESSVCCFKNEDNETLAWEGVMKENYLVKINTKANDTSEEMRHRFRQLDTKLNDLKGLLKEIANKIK

Consider `O=C(N[C@@H](c1cc(F)cc(C(F)(F)F)c1)c1ncccc1F)c1ccc(=O)[nH]c1` [Example 327, (S)-N-((3-fluoro-5-(trifluoromethyl)phenyl)(3-fluoropyridin-2-yl)methyl)-6-oxo-1,6-dihydropyridine-3-carboxamide], for which the IC50 (commonly the concentration that gives 50% inhibition) came out at 302 nM.
With `Cc1cc([C@H](NC(=O)c2ccc(=O)n(C)c2)c2ncccc2F)ccc1F` [Example 339, (S)-N-((4-fluoro-3-methylphenyl)(3-fluoropyridin-2-yl)methyl)-1-methyl-6-oxo-1,6-dihydropyridine-3-carboxamide] the figure was 915 nM.
With `Nc1n[nH]c(C(=O)N[C@@H](c2ccc(C(F)(F)F)cc2)c2ncccc2C(F)(F)F)n1` [Example 159, (S)-3-amino-N-((4-(trifluoromethyl)phenyl)(3-(trifluoromethyl)pyridin-2-yl)methyl)-1H-1,2,4-triazole-5-carboxamide] the figure was 2210 nM.
With `O=C(N[C@@H](c1ccc(C(F)(F)F)c(F)c1)c1ccccc1C(F)(F)F)c1ccc2ncccc2c1` [Example 257, (S)-N-((3-fluoro-4-(trifluoromethyl)phenyl)(2-(trifluoromethyl)phenyl)methyl)quinoline-6-carboxamide] the figure was 109 nM; with `O=C(N[C@@H](c1ccc(C(F)(F)F)cc1)c1ncccc1F)c1ccc(=O)n(Cc2ccccc2)c1` [Example 371, (S)-1-benzyl-N-((3-fluoropyridin-2-yl)(4-(trifluoromethyl)phenyl)methyl)-6-oxo-1,6-dihydropyridine-3-carboxamide], 190 nM; with `O=C(N[C@@H](c1ccc(C(F)(F)F)cc1)c1ncccc1F)c1ccc[nH]c1=O` [Example 72, (S)-N-((3-fluoropyridin-2-yl)(4-(trifluoromethyl)phenyl)methyl)-2-oxo-1,2-dihydropyridine-3-carboxamide], 167 nM.
For the molecule `CO[C@@](C(=O)N[C@@H](c1ccc(C(F)(F)F)cc1)c1ncccc1C(F)(F)F)(c1ccccc1)C(F)(F)F` [Example 237, 3,3,3-trifluoro-2-methoxy-2-phenyl-N-((S)-(4-(trifluoromethyl)phenyl)(3-(trifluoromethyl)pyridin-2-yl)methyl)propanamide], the concentration for half-maximal inhibition (IC50) was 733 nM.
As to `CC(C)(C)Cc1cccnc1[C@@H](NC(=O)c1ccc2ncccc2c1)c1ccc(C(F)(F)F)cc1` [Example 236, (S)-N-((3-neopentylpyridin-2-yl)(4-(trifluoromethyl)phenyl)methyl)quinoline-6-carboxamide], the IC50 was 239 nM.
With `Cn1cnc2cc(C(=O)N[C@@H](c3ccc(C(F)(F)F)cc3)c3ncccc3F)ccc21` [Example 394, (S)-N-((3-fluoropyridin-2-yl)(4-(trifluoromethyl)phenyl)methyl)-1-methyl-1H-benzo[d]imidazole-5-carboxamide] the figure was 35.4 nM; with `CS(=O)(=O)c1ccc(C(=O)N[C@@H](c2ccc(C(F)(F)F)cc2)c2ncccc2F)cc1` [Example 217, (S)-N-((3-fluoropyridin-2-yl)(4-(trifluoromethyl)phenyl)methyl)-4-(methylsulfonyl)benzamide], 147 nM; with `O=C(N[C@@H](c1ccc(C(F)(F)F)cc1)c1ncccc1F)c1ccc2cn[nH]c2c1` [Example 166, (S)-N-((3-fluoropyridin-2-yl)(4-(trifluoromethyl)phenyl)methyl)-1H-indazole-6-carboxamide], 7.6 nM.
With `O=C(N[C@@H](c1cc(F)cc(F)c1)c1ncccc1F)c1ccc(=O)[nH]c1` [Example 329, (S)-N-((3,5-difluorophenyl)(3-fluoropyridin-2-yl)methyl)-6-oxo-1,6-dihydropyridine-3-carboxamide] the figure was 841 nM; with `Cc1nccn1CC(=O)N[C@@H](c1ccc(C(F)(F)F)cc1)c1ncccc1C(F)(F)F` [Example 160, (S)-2-(2-methyl-1H-imidazol-1-yl)-N-((4-(trifluoromethyl)phenyl)(3-(trifluoromethyl)pyridin-2-yl)methyl)acetamide], 3320 nM.
With `O=C(N[C@@H](c1ccc(C(F)(F)F)c(F)c1)c1ncccc1C(F)(F)F)c1ccc2nccnc2c1` [Example 108, (S)-N-((3-fluoro-4-(trifluoromethyl)phenyl)(3-(trifluoromethyl)pyridin-2-yl)methyl)quinoxaline-6-carboxamide] the figure was 24.1 nM; with `O=C(O)C1CCC(C(=O)N[C@@H](c2ccc(C(F)(F)F)cc2)c2ncccc2C(F)(F)F)CC1` (stereo partly drawn) [Example 244, (S)-4-(((4-(trifluoromethyl)phenyl)(3-(trifluoromethyl)pyridin-2-yl)methyl)carbamoyl)cyclohexanecarboxylic acid], 3380 nM; with `O=C(N[C@@H](c1ccc(C(F)(F)F)cc1)c1ccccn1)c1ccc2c(c1)NCCC2` [Example 276, (S)—N-(Pyridin-2-yl(4-(trifluoromethyl)phenyl)methyl)-1,2,3,4-tetrahydroquinoline-7-carboxamide], 177 nM.
On to `CCn1cc(C(=O)N[C@@H](c2ccc(Cl)c(Cl)c2)c2ncccc2F)ccc1=O` [Example 365, (S)-N-((3,4-dichlorophenyl)(3-fluoropyridin-2-yl)methyl)-1-ethyl-6-oxo-1,6-dihydropyridine-3-carboxamide], for which the 50% inhibitory concentration (IC50) came out at 40.1 nM.
With `Cc1ncc(C(=O)N[C@@H](c2ccc(C(F)(F)F)cc2)c2ncccc2C(F)(F)F)cn1` [Example 57, (S)-2-methyl-N-((4-(trifluoromethyl)phenyl)(3-(trifluoromethyl)pyridin-2-yl)methyl)pyrimidine-5-carboxamide] the figure was 63.1 nM; with `COc1cccc(C(=O)N[C@@H](c2ccc(C(F)(F)F)cc2)c2ncccc2C(F)(F)F)n1` [Example 33, (S)-6-methoxy-N-((4-(trifluoromethyl)phenyl)(3-(trifluoromethyl)pyridin-2-yl)methyl)picolinamide], 125 nM.
With `O=C(N[C@@H](c1ccc(OC(F)(F)F)c(F)c1)c1ncccc1F)c1ccc(=O)n(C[C@H](O)C(F)(F)F)c1` [Example 408, N-((S)-(3-fluoro-4-(trifluoromethoxy)phenyl)(3-fluoropyridin-2-yl)methyl)-6-oxo-1-((S)-3,3,3-trifluoro-2-hydroxypropyl)-1,6-dihydropyridine-3-carboxamide] the figure was 78.1 nM; with `O=C(N[C@@H](c1ccc(C(F)(F)F)cc1)c1ncccc1C(F)(F)F)c1cncnc1` [Example 147, (S)-N-((4-(trifluoromethyl)phenyl)(3-(trifluoromethyl)pyridin-2-yl)methyl)pyrimidine-5-carboxamide], 148 nM; with `O=C(N[C@@H](c1ccc(OC(F)(F)F)cc1)c1ncccc1F)c1cccs1` [Example 374, (S)-N-((3-fluoropyridin-2-yl)(4-(trifluoromethoxy)phenyl)methyl)thiophene-2-carboxamide], 52.4 nM.
In the case of `COc1ccc(C(=O)N[C@@H](c2ccc(C(F)(F)F)cc2)c2ncccc2F)cn1` [Example 46, (S)-N-((3-fluoropyridin-2-yl)(4-(trifluoromethyl)phenyl)methyl)-6-methoxynicotinamide], the 50% inhibitory concentration (IC50) worked out at 12.3 nM.
With `Cc1ccc([C@H](NC(=O)c2ccc(=O)[nH]c2)c2ncccc2F)cc1` [Example 379, (S)-N-((3-fluoropyridin-2-yl)(p-tolyl)methyl)-6-oxo-1,6-dihydropyridine-3-carboxamide] the figure was 270 nM; with `C=Cc1cccnc1[C@@H](NC(=O)c1ccc(=O)[nH]c1)c1ccc(C(F)(F)F)cc1` [Example 363, (S)-6-oxo-N-((4-(trifluoromethyl)phenyl)(3-vinylpyridin-2-yl)methyl)-1,6-dihydropyridine-3-carboxamide], 29.5 nM; with `C=CCN1C(=O)c2ccc(C(=O)N[C@@H](c3ccc(C(F)(F)F)cc3)c3ncccc3C(F)(F)F)cc2C1=O` [Example 268, (S)-2-Allyl-1,3-dioxo-N-((4-(trifluoromethyl)phenyl)(3-(trifluoromethyl)pyridin-2-yl)methyl)isoindoline-5-carboxamide], 156 nM.
With `O=C(N[C@@H](c1ccc(C(F)(F)F)c(F)c1)c1ncccc1C(F)(F)F)c1ccccn1` [Example 112, (S)-N-((3-fluoro-4-(trifluoromethyl)phenyl)(3-(trifluoromethyl)pyridin-2-yl)methyl)picolinamide] the figure was 84.4 nM.
With `O=C(N[C@@H](c1ccc(F)cc1)c1ncccc1C(F)(F)F)c1ccccc1` [Example 126, (S)-N-((4-fluorophenyl)(3-(trifluoromethyl)pyridin-2-yl)methyl)benzamide] the figure was 194 nM.
Regarding `O=C(N[C@@H](c1ccc(C(F)(F)F)cc1)c1ncccc1C(F)(F)F)c1ccccn1` [Example 228, (S)-N-((4-(trifluoromethyl)phenyl)(3-(trifluoromethyl)pyridin-2-yl)methyl)picolinamide], the concentration for half-maximal inhibition (IC50) turned out to be 39.7 nM.
With `COc1ncc(C(=O)N[C@@H](c2ccc(C(F)(F)F)cc2)c2ncccc2F)cn1` [Example 264, (S)—N-((3-Fluoropyridin-2-yl)(4-(trifluoromethyl)phenyl)methyl)-2-methoxypyrimidine-5-carboxamide] the figure was 253 nM; with `COc1ccc(C(=O)NC(c2ccc(C(F)(F)F)cc2)c2ncccc2F)cn1` (stereo not drawn) [Example 35, N-((3-fluoropyridin-2-yl)(4-(trifluoromethyl)phenyl)methyl)-6-methoxynicotinamide], 19.6 nM; with `O=C(N[C@@H](c1ccc(C(F)(F)F)cc1)c1ncccc1F)c1ccc(=O)[nH]n1` [Example 317, (S)-N-((3-fluoropyridin-2-yl)(4-(trifluoromethyl)phenyl)methyl)-6-oxo-1,6-dihydropyridazine-3-carboxamide], 38.9 nM.
With `Nc1cccnc1C(=O)N[C@@H](c1ccc(C(F)(F)F)cc1)c1ncccc1C(F)(F)F` [Example 144, (S)-3-amino-N-((4-(trifluoromethyl)phenyl)(3-(trifluoromethyl)pyridin-2-yl)methyl)picolinamide] the figure was 200 nM.
